Data taken from PubChem BioAssay (NCI).
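Interpolation was linear, between the two tested concentrations surrounding the appropriate level; five concentrations were tested over 48 hours in 96-well plates. Abbreviation: GI50, concentration required for 50% inhibition of growth. TGI denotes the concentration required for complete inhibition of growth.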

What was measured:
Experiment in all cases: inhibition of tumour cell growth, NCI panel, 48 h
HCT-15 colon = system: HCT-15 colon
HOP-62 NSCLC = system: HOP-62 NSCLC
KM12 colon = system: KM12 colon
MALME-3M melanoma = system: MALME-3M melanoma
SK-MEL-28 melanoma = system: SK-MEL-28 melanoma
SK-MEL-5 melanoma = system: SK-MEL-5 melanoma
SNB-19 CNS = system: SNB-19 CNS
TK-10 renal = system: TK-10 renal
U251 CNS = system: U251 CNS
UACC-257 melanoma = system: UACC-257 melanoma

SMILES	TGI (HCT-15 colon)	TGI (HOP-62 NSCLC)	TGI (KM12 colon)	TGI (MALME-3M melanoma)	TGI (SK-MEL-28 melanoma)	TGI (SK-MEL-5 melanoma)	TGI (SNB-19 CNS)	TGI (TK-10 renal)	TGI (U251 CNS)	TGI (UACC-257 melanoma)	GI50 (HCT-15 colon)	GI50 (HOP-62 NSCLC)	GI50 (KM12 colon)	GI50 (MALME-3M melanoma)	GI50 (SK-MEL-28 melanoma)	GI50 (SK-MEL-5 melanoma)	GI50 (SNB-19 CNS)	GI50 (TK-10 renal)	GI50 (U251 CNS)	GI50 (UACC-257 melanoma)
COC(=O)CCC(NC(=S)N/N=C(\C)c1ccccn1)C(=O)OC (stereo not given)	> 100 µM	> 100 µM	> 100 µM	> 100 µM	> 100 µM	> 100 µM	> 100 µM	> 100 µM	> 100 µM	> 100 µM										
C=C1C(=O)OC2CCCCC3OC3C12 (stereo not given)	19.9 µM	41.3 µM	31.8 µM	23.1 µM	23.9 µM	19.5 µM	36.8 µM	26.7 µM	23 µM	26.5 µM										
COC(=O)C(C(=O)C(=O)Nc1cccc(O)c1)c1nc2ccc(Cl)cc2[nH]c1=O (stereo not given)	> 100 µM	> 100 µM	> 100 µM	> 100 µM	> 100 µM	> 100 µM	> 100 µM	> 100 µM	> 100 µM	> 100 µM										
CCCc1cc(=O)oc2c(C(=O)CC(C)C)c(O)c(CC=C(C)C)c(O)c12	> 50 µM	> 50 µM	> 50 µM	32.4 µM	> 50 µM	11 µM	> 50 µM	> 50 µM	> 50 µM	29.9 µM	5.81 µM	17.6 µM	11 µM	9.89 µM	6.21 µM	2.53 µM	14.5 µM	12.2 µM	9.19 µM	5.89 µM
CN(C)CC(C(=O)c1ccccc1)c1ccccc1 (stereo not given)	2.54 µM	23.5 µM	3.83 µM	3.62 µM	13.6 µM	3.45 µM	19.4 µM	2.67 µM	3.13 µM	5.81 µM	1.11 µM	11.3 µM	1.74 µM	1.69 µM	4.13 µM	1.57 µM	6.1 µM	1.3 µM	1.56 µM	1.99 µM
O=C(c1cc(=O)c2ccc(O)cc2o1)c1ccc(Cl)cc1Cl	> 100 µM	> 100 µM	> 100 µM	> 94.7 µM	> 100 µM	> 74.6 µM	> 100 µM	> 100 µM	> 100 µM	> 71.9 µM										
O=C1NC(=NCC(CO)c2ccccc2)S/C1=C\c1ccc2ncccc2c1 (stereo not given)	> 25 µM	> 25 µM	> 25 µM	> 25 µM	> 25 µM	> 25 µM	> 25 µM	> 25 µM	> 25 µM	> 25 µM	> 21.8 µM	23.9 µM	14.7 µM	> 25 µM	> 25 µM	> 25 µM	> 25 µM	> 21.8 µM	9.91 µM	> 25 µM
CCOc1ccccc1NC(=O)C(=O)CC(=O)C1=C(C)Nc2ccccc2S1	> 100 µM	> 100 µM	> 100 µM	> 100 µM	> 100 µM	> 100 µM	> 100 µM	> 100 µM	> 100 µM	> 100 µM										
